Laboratory results as given in patent US6951840B2, “Lipoglycopeptide antibiotics” (priority 2001, dated 2005).
≈ marks a conversion by molar mass, not a printed value.

Experiments:
[1] = test system: Haemophilus influenzae ATCC 49247; assay: Broth micro-dilution MIC, H. influenzae ATCC 49247; assay type: cell-based; conditions: ATCC49247, read-out: MIC, H. influenzae ATCC49247
Protocol: (§1) The in vitro antibacterial activity of lipoglycopeptides 1, 2, 5, 6, 7, and 8 is determined according to the National Committee for Clinical Laboratory Standards (NCCLS) recommendations for broth micro-dilution assay using 2xsTH (Todd Hewitt broth), MHII (cation adjusted Mueller Hinton broth) or HTM medium (Haemophilus Test Medium) (Gerhardt, P., et al., (1994) Methods for General and Molecular Bacteriology. American Society for Microbiology, Washington, D.C.). Bacterial strains used for antibacterial assay include both gram-positive and gram-negative bacteria: S. pneumoniae R6, Staphylococcus aureus SA027, Haemophilus influenzae ATCC 49247, E. coli EL683 and EL744. A two-fold serial dilution of the test compound is prepared in 100% DMSO. The assay is performed in the wells of a sterile 96-well microplate, that is inoculated with bacterial cell suspension in growth medium or broth as above. The final volume is 100 μl cell suspension, containing 2.5% DMSO. The starting concentration of bacterial cells is 5×10^5 CFU/ml. The 96-well microplate is incubated for 23-24 hr at 37° C. in an ambient air incubator. Upon completion of incubation, the MIC (minimal inhibitory concentration) is determined by visual examination of the microplate with the aid of a magnifying mirror apparatus. The MIC is the lowest concentration of compound tested that results in no visible sign of bacterial growth.

E. coli SPase I [2] = biological target: T1, E. coli SPase I (Escherichia coli, UniProt P00803, I81L); assay: Fluorimetric IC50 determination, E. coli signal peptidase; assay type: biochemical
T1 construct: His-tag (inferred from vector pET15b cloned at NdeI/XhoI and Ni-NTA purification); made in house; host or cells: E. coli BL21(DE3)
Protocol: Cloning and expression of the E. coli SPase I gene is performed by polymerase chain reaction (PCR) using E. coli genomic DNA as a template and two oligonucleotides as primers: 5′-[…]-3′ (SEQ ID NO: 1) and 5′-[…]-3′ (SEQ ID NO:2). The primers are designed to contain NdeI and XhoI restriction sites at the 5′-ends, respectively, to enable cloning into the bacterial expression vector pET15b (Novagen). The primers are synthesized based upon the published sequence of E. coli SPase I (Wolfe, et al. (1983) J. Biol. Chem. 258, 12073-12080).
Expression vector pET15b-E. coli SPase is constructed by replacing the NdeI/XhoI fragment of pET15b with the PCR fragment that is purified and digested with Ndel and XhoI. The identity of the cloned gene is confirmed by DNA sequencing. For expression of E. coli SPase I, E. coli strain BL21(DE3)(Stratagene) is transformed with pET15b-E. coli SPase, and grown and induced with 0.4 mM IPTG (isopropryl-1-thio-β-D-galactopyranoside) as described in Studier, et al. (1990) Methods Enzymol. 185, 60-89.
For purification of E. coli SPase T, one liter of IPTG-induced E. coli BL21(DE3) cells harboring pET15b-E coli SPase is harvested by centrifugation and re-suspended in 50 ml of lysis buffer containing 50 mM Na2HPO4, 300 mM NaCl, pH 8.0, and sonicated 5 min. on ice. The lysate is then centrifuged at 50,000 g for 1 hr at 4° C. The resultant supernatant is discarded, the pellet is re-suspended, and sonicated for 5 min. in 20 ml of lysis buffer containing 8 M urea. After centrifugation at 50,000 g for 1 hr at 4° C., the supernatant is loaded onto a 5 ml column of pre-equilibrated Ni-nitrilotriacetic acid (NTA) that is then washed with 120 ml of refolding buffer (50 mM NaH2PO4, 300 mM NaCl, 15 mM imidazole) containing a continuous urea gradient from 6 to 1 M with a flow rate of 1 ml/min. The protein is eluted with 20 ml of elution buffer (20 mM Tris-HCl, pH 8.0, 20% glycerol, 1 M urea and 100 mM imidazole), and 1 ml fractions are collected and utilized for enzyme assay.
(§2) “IC50” refers to the concentration of inhibitor required to achieve a half-maximal degree of inhibition of SPase I. The IC50 is determined by a fluorimetric assay as described in Peng, et al. (2001) J. Bacterol. 183, 621-627, with a fluorogenic peptide used as substrate as described therein. The reaction is performed in 50 μls of reaction mixture containing 50 nM of either E. coli or S. pneumoniae SPase I, 50 μM substrate, and a series dilution of inhibitor. Inhibitors are dissolved in dimethylsulfoxide (DMSO). Compounds in DMSO are diluted in reaction buffer. The final DMSO concentration in the reaction mixtures is 2% (v/v). Reaction mixtures are incubated at 37° C. for 1-2 hrs. The IC50 is calculated using a nonlinear regression method with GraphPad Prism™ Software (GraphPad G3-A13127-507). The inhibitory activity of lipoglycopeptides 1-8 against both E. coli and S. pneumoniae signal peptidases, are summarized in Table 7.
Target sequence in this assay (P00803 77-324 I81L): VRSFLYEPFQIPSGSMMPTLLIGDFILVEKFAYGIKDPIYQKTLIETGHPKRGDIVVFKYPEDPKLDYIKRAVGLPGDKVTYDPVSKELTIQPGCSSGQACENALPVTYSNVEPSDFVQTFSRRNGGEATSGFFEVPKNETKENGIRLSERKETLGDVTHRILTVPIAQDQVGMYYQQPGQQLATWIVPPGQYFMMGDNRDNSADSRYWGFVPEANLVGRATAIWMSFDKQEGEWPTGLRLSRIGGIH

E. coli EL744 = assay: Broth micro-dilution MIC, E. coli EL744; assay type: cell-based; conditions: Escherichia coli, MHII broth, 23-24 hr at 37° C.
Protocol: as §1

S. pneumoniae SPase I = biological target: T2, S. pneumoniae SPase I (Streptococcus pneumoniae serotype 4, UniProt O07344); assay: Fluorimetric IC50 determination, S. pneumoniae signal peptidase; assay type: biochemical; conditions: 50 nM SPase I, 50 μM fluorogenic substrate, 37° C., 1-2 hrs
T2 construct: made in house
T2 sequence (O07344 whole entry): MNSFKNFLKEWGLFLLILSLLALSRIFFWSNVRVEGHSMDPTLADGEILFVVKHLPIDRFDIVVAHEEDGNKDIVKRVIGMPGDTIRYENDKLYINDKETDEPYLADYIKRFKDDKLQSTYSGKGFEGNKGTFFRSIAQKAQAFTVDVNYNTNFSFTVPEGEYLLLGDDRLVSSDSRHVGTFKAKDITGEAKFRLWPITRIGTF
Protocol: Procedures for cloning, expression and purification of S. pneumoniae Spase can be found in reference (Peng, et al. (2001) J. Bacterol. 183, 621-627).
as §2

E. coli SPase I [3] = biological target: T1, E. coli SPase I; assay: Kinetic analysis by HPLC assay with non-fluorogenic peptide substrate; assay type: biochemical
Protocol: A kinetic analysis is performed with E. coli SPase I and the non-fluorogenic peptide substrate by HPLC assay as described in Peng, et al. (2001) J. Bacterol. 183, 621-627. 50 μl of reaction volume contains 50 nM E. coli SPase I with different concentrations of substrate and lipoglycopepetide inhibitors. The reaction mixtures are incubated at room temperature for 30 mins., and terminated by the addition of an equal amount of 8 M urea. The final concentration of DMSO in the reaction mixtures is 2%. Substrate cleavage is analyzed by HPLC as described in Peng, et al. (2001) J. Bacterol. 183, 621-627. The initial rate, K1, and inhibition type of the inhibitor is calculated with Sigma Plot 2000, Version 6.2 with enzyme kinetics module (SPSS, Inc., Cat No. 3703564).

[4] = test system: Staphylococcus aureus SA027; assay: Broth micro-dilution MIC, S. aureus SA027; assay type: cell-based; conditions: MHII broth, 23-24 hr at 37° C.
Protocol: as §1

S. pneumoniae R6 = assay: Broth micro-dilution MIC, S. pneumoniae R6; assay type: cell-based; conditions: 23-24 hr at 37° C.; for MIC: Streptococcus pneumoniae, R6, 2XsTH broth; for MIC, S. pneumoniae R6: 2XsTH broth
Protocol: as §1

E. coli EL683 = assay: Broth micro-dilution MIC, E. coli EL683; assay type: cell-based; conditions: Escherichia coli, MHII broth, 23-24 hr at 37° C.
Protocol: as §1

[5] = test system: Staphylococcus aureus (ATCC 33592); assay: Beta-lactamase release assay; assay type: cell-based; conditions: beta-lactamase-producing S. aureus ATCC 33592, 2 hr incubation with inhibitor
Protocol: In Staphylococcus aureus, signal peptidase cleaves beta-lactamase, resulting in the release of beta-lactaidase into the medium. In this example, the ability of lipoglycopeptides 1,2, and 5 to inhibit the release of beta-lactamase from Staphylococcus aureus into the medium is examined.
Staphylococcus aureus (ATCC 33592) cells are grown overnight in a series dilution in Brain Heart Infusion (BHI) (Gerhardt, P., et al., (1994) Methods for General and Molecular Bacteriology. American Society for Microbiology, Washington, D.C.) medium in a 37° C. incubator containing 5% CO2. Cultures with an OD660 less than 0.3 are centrifuged, and the cells are washed once with fresh BHI medium. The cells are then resuspended in fresh BHI medium to an initial OD660 of 0.15-0.2. At the same time, the selected inhibitor is diluted from the DMSO stock solution into BHI medium at different concentrations, and is added to the cells which are then incubated at 37° C. under 5% CO2 for 2 hr. The final DMSO concentration in the reaction mixtures is 1% (v/v). The OD660 is measured at the end of incubation. The cells are centrifuged, and the supernatant is saved for the determination of secreted beta-lactamase. The pellet is washed once with fresh BHI medium, re-suspended in the equivalent volume of fresh BHI medium, frozen, and then thawed […]. for three cycles, and used for the determination of retained beta-lactamase. For the determination of beta-lactamase activity, 100 μl reaction mixture (30-50 μls of supernatant or lysed cells) is incubated with 250 μM nitrocefin in 1×PBS buffer (phosphate buffered saline) (pH 6.8) at 37° C. for 30-60 min. Nitrocefin is the substrate for beta-lactamase. Cleavage of nitrocefin results in an increase in absorbance at 482 nm. The absorbance at 482 nm (OD482) is measured at the beginning and at the end of the reaction. The secreted and the retained beta-lactamase activities are calculated based upon the ΔOD482.

| SMILES | MIC [1] [µg/mL] | IC50 (E. coli SPase I [2]) [nM] | MIC (E. coli EL744) [µg/mL] | IC50 (S. pneumoniae SPase I) [µM] | Ki (E. coli SPase I [3]) [nM] | MIC [4] [µg/mL] | MIC (S. pneumoniae R6) [µg/mL] | MIC (E. coli EL683) [µg/mL] | inhibition of secretion of beta-lactamase [5] | MIC, S. pneumoniae R6 (S. pneumoniae R6) [µg/mL] |
| --- | --- | --- | --- | --- | --- | --- | --- | --- | --- | --- |
| CC(C)CCCCCCCCCCC(=O)N(C)C(CO)C(=O)NC(C)C(=O)NCC(=O)N(C)C1C(=O)NC(C)C(=O)NC(C(=O)O)Cc2ccc(O)c(c2)-c2cc1ccc2OC1OC(C)C(O)C(O)C1O (stereo not shown) [Compound 7] | > 64 | 110 | 16 (≈ 16 µM) | 6.1 | 50.4 | > 64 | > 64 | – | – | – |
| CCCCCCCCCCCCCC(=O)N(C)C(CO)C(=O)NC(C)C(=O)NCC(=O)N(C)C1C(=O)NC(C)C(=O)NC(C(=O)O)Cc2ccc(O)c(c2)-c2cc1ccc2OC1OC(C)C(O)C(O)C1O (stereo not shown) [Compound 6] | > 64 | 110 | 8 (≈ 8.01 µM) | 6.6 | – | > 64 | 64 (≈ 64.1 µM) | – | – | – |
| CCCCCCCCCCCCCCC(=O)N(C)C(CO)C(=O)NC(C)C(=O)NCC(=O)N(C)C1C(=O)NC(C)C(=O)NC(C(=O)O)Cc2ccc(O)c(c2)-c2cc1ccc2OC1OC(C)C(O)C(O)C1O (stereo not shown) [Compound 4] | – | 130 | – | 5.9 | – | – | – | – | – | – |
| CC(C)CCCCCCCCCCC(=O)N(C)C(CO)C(=O)NC(C)C(=O)NCC(=O)N(C)C1C(=O)NC(C)C(=O)NC(C(=O)O)Cc2ccc(O)c(c2)-c2cc1cc(O)c2OC1OC(C)C(O)C(O)C1O (stereo not shown) [Compound 8] | > 64 | 110 | 8 (≈ 7.88 µM) | 24.9 | 110 | > 64 | > 64 | – | – | – |
| CC(C)CCCCCCCCCCCCC(=O)N(C)C(CO)C(=O)NC(C)C(=O)NCC(=O)N(C)C1C(=O)NC(C)C(=O)NC(C(=O)O)Cc2ccc(O)c(c2)-c2cc1cc(O)c2OC1OC(C)C(O)C(O)C1O (stereo not shown) [Compound 1] | 64 (≈ 61.3 µM) | 170 | 32 (≈ 30.7 µM) | 7.1 | – | 32 (≈ 30.7 µM) | 16 (≈ 15.3 µM) | 8 (≈ 7.67 µM) | inhibit the secretion of beta-lactamase | – |
| CC(C)CCCCCCCCCCCCC(=O)N(C)C(CO)C(=O)NC(C)C(=O)NCC(=O)N(C)C1C(=O)NC(C)C(=O)NC(C(=O)O)Cc2ccc(O)c(c2)-c2cc1ccc2OC1OC(C)C(O)C(O)C1O (stereo not shown) [Compound 5] | > 64 | 130 | 16 (≈ 15.6 µM) | 2.4 | 57.5 | > 64 | 16 (≈ 15.6 µM) | 4 (≈ 3.89 µM) | inhibit the secretion of beta-lactamase | 8 (≈ 7.79 µM) |
| CCCCCCCCCCCCCCCC(=O)N(C)C(CO)C(=O)NC(C)C(=O)NCC(=O)N(C)C1C(=O)NC(C)C(=O)NC(C(=O)O)Cc2ccc(O)c(c2)-c2cc1cc(O)c2OC1OC(C)C(O)C(O)C1O (stereo not shown) [Compound 2] | 64 (≈ 61.3 µM) | 190 | 32 (≈ 30.7 µM) | 10.3 | 158 | 64 (≈ 61.3 µM) | 8 (≈ 7.67 µM) | 8 (≈ 7.67 µM) | inhibit the secretion of beta-lactamase | 16 (≈ 15.3 µM) |
| CC(C)CCCCCCCCCCCC(=O)N(C)C(CO)C(=O)NC(C)C(=O)NCC(=O)N(C)C1C(=O)NC(C)C(=O)NC(C(=O)O)Cc2ccc(O)c(c2)-c2cc1ccc2OC1OC(C)C(O)C(O)C1O (stereo not shown) [Compound 3] | – | 130 | – | 7 | – | – | – | – | – | – |
